Assay results taken from article PMC9299220, “Inhibition of JMJD6 by 2‐Oxoglutarate Mimics” (Chemmedchem, 2021).
Entries after “also recorded” stand apart in the source; their conditions may differ. Like-named read-outs stand apart in the source and are kept apart here.

Key:
JMJD6Δ363‐403 = molecular target: T1, JMJD6Δ363‐403 (Homo sapiens, UniProt Q6NYC1); test: MALDI-TOF MS assay of JMJD6-catalysed lysine hydroxylation of LUC7L2 267-278 peptide; type: biochemical; conditions: for IC50: n=3, 10 μM JMJD6Δ363‐403, 100 μM LUC7L2 267‐278, 100 μM Fe(II), 400 μM L-sodium ascorbate, 20 μM 2OG, inhibitor 0–10 mM; for potency of JMJD6 inhibition (in words): MS assay
T1 construct: made in house
Source text: Initially, we used the MS assay to screen a range of potential JMJD6 inhibitors, based on scaffolds identified as inhibitors of other 2OG oxygenases, grouped into: (i) TCA cycle and related acidic compounds; (ii) 2OG mimics / broad spectrum 2OG oxygenase inhibitors; (iii) PHD inhibitors in clinical use / investigation; (iv) tricarbonyl type compounds, which are known iron oxygenase inhibitors; (v) reported inhibitors of the JmjC KDMs.[23]
Figure S1. Initial inhibition assays. Bar charts showing extent of JMJD6 inhibition by 0.1, 1, and 10 mM compound: (A) TCA cycle intermediates/related compounds, (B) 2OG analogues, (C) PHD inhibitors, (D) Tricarbonyl type compounds, (E) JmjC KDM inhibitors.
Values represent the mean ± SD (n = 3). Conditions: 10 µM JMJD6Δ363-403 (prepared as […]
reported) and 100 µM LUC7L2267-278 ([…], with a C-terminal amide) at 37 °C in 50 mM HEPES pH 7.5 buffer with 100 µM (NH4)2Fe(SO4)2.6H2O (Sigma-Aldrich), […]
varied inhibitor concentrations (0-10 mM). Reactions were quenched and products analysed by MALDI-TOF MS following a reported procedure.[11]
(1 picture or pasted object on this page, not shown here)

[1] = molecular target: T2, JMJD6Δ363‐403.Zn(II).2OG complex (Homo sapiens, UniProt Q6NYC1); test: Ligand-observed CPMG-edited 1H NMR 2OG displacement assay from JMJD6Δ363‐403.Zn(II).2OG complex; type: binding; conditions: for extent of 2OG displacement from JMJD6Δ363‐403.Zn(II).2OG complex (in words): initial screen, fixed inhibitor concentration (400 µM ligand), Figure S6; for Kd: 1H NMR, 60 µM EDTA-treated JMJD6, 200 µM Zn(II), 20 µM 2OG, 50 mM Tris-D11 pH 7.0, 10% D2O, mean ± SD (n=3), read-out: KD app (apparent binding constant) (converted)
T2 construct: made in house
Source text: We investigated whether the inhibitors compete for binding to JMJD6^Δ363‐403, using ^1H NMR to investigate the extent to which they displace 2OG from the JMJD6^Δ363‐403.Zn(II).2OG complex, initially with a fixed inhibitor concentration (Figure S6).[21, 22]
Figure S6: 2OG displacement ligand-binding assays with JMJD6 using CPMG-edited 1H NMR. Bar charts show the extent of 2OG displacement for: (A) TCA cycle intermediates, (B) 2OG mimetics, (C) PHD inhibitors, (D) tricarbonyl type compounds, (E) KDM inhibitors. Conditions: 60 µM EDTA-treated JMJD6∆363-403, 200 µM Zn(II), 10 µM 2OG, and 400 µM of the ligand, all in 50 mM Tris-D11, pH 7.0 in 10% D2O. Values represent the mean (n = 3) ± standard deviation (SD). Eq DMSO: DMSO control without inhibitor.
Figure S7: KDapp determination for TCA cycle intermediates / related compounds binding to JMJD6. Plots used for the determination of KDapp values of (A) fumarate and (B) […]
succinate. […] Conditions: 60 µM
EDTA-treated JMJD6, 200 µM Zn(II), 20 µM 2OG, 0-400 µM ligand, all in 50 mM Tris-D11 pH 7.0 in 10% D2O. Values represent the mean ± SD (n = 3). Compound structures are […]
Figure S8: KDapp determination for pyridine derivative binding to JMJD6. Plots used for determination of KDapp values (A) 2,4-PDCA and (B) 2,4-BPDCA.
Conditions: 60 µM EDTA-treated
D2O. Values represent the mean ± SD (n = 3).
Figure S9: KDapp determination for PHD inhibitor binding to JMJD6. Plots used for the determination of KDapp value (A) AKB-6899 and (B) Vadadustat.
Conditions: 60 µM EDTA-treated JMJD6,
Values represent the mean ± SD (n = 3).
Conditions for NMR assays
NMR was used to measure 2OG displacement from JMJD6 caused by inhibitors according to the method of Leung et al. The Carr-Purcell-Meiboom-Gill (CPMG) pulse sequence coupled with periodic refocusing of J evolution by coherence transfer (PROJECT) method was applied for spectral editing was used to edit out protein signals. In the initial screen […]
2OG and 400 µM inhibitor; the 1H NMR-spectra of 2OG were then analysed. To determine the apparent binding constant (KDapp), 20 µM of 2OG was titrated against increasing concentrations of JMJD6Δ363-403 in the presence of Zn(II) [JMJD6∆363-403.Zn(II)]. Thus, JMJD6∆363-403.Zn(II) was added until the methylene signals of 2OG were no longer observed, indicating complete 2OG binding to JMJD6. The extent of 2OG (%) bound to JMJD6Δ363-403 was calculated and the values were plotted against the concentration of JMJD6Δ363-403 using OriginTM. The KDapp of 2OG was calculated as reported.[11] To determine the KDapp for the inhibitor, the recovery of 2OG-signals was monitored in the presence of varied concentrations of inhibitor (0-800 µM).
% 2OG Displacement = x 100 […]
where, I2OG is the integral of the 2OG 1H signal in the presence of both inhibitor and JMJD6∆363-403.Zn(II)], I2OG(0) is the integral of 2OG in the presence of JMJD6∆363-403.Zn(II)] without inhibitor, I2OG(blank) is the integral of 2OG in the absence of both JMJD6∆363-403.Zn(II)] and inhibitor, ∆obs is the change in the integral of 2OG resulting from titration, ∆max represents the maximum change of the monitored NMR parameter (2OG integral), [L]0 is the titrated ligand concentration, and [P]0 is the JMJD6∆363-403concentration. 5-10% error was typically allowed in the curve fitting process.

SMILES	IC50 (JMJD6Δ363‐403; IC50, mean±SD)	IC50 (JMJD6Δ363‐403; mean±SD, read-out: IC50)	also measured
Cn1c(O)c(C(=O)CCc2ccsc2)c(=O)n(C)c1=O [compound 15]	≥ 1000 µM		
CCOC(=O)CNC(=O)c1c(O)n(C2CCCCC2)c(=O)n(C2CCCCC2)c1=O [compound 4]	175 ± 1.5 µM		
O=C(O)c1ccnc2c(O)cccc12 [compound 2]		5 ± 1.3 µM	
O=C(O)CC[C@@H](O)C(=O)O [D‐2HG, 2‐hydroxyglutarate]		622 ± 1.4 µM	
O=C(O)c1ccc(O)c2ncccc12 [IOX1, 5‐carboxy‐8‐hydroxyquinoline, reference compound]		10 ± 1.5 µM	
Cn1c(O)c(C(=O)CCC2CC2)c(=O)n(C)c1=O [compound 14]	163 ± 1.3 µM		
O=C(O)CNC(=O)C(=O)O [NOG, N‐oxalylglycine, reference compound]		296 ± 1.9 µM	extent of 2OG displacement from JMJD6Δ363‐403.Zn(II).2OG complex (in words) [1]: only weakly displaced 2OG; potency of JMJD6 inhibition (in words) (JMJD6Δ363‐403): poor inhibitor; also recorded: not a potent JMJD6 inhibitor
CC(Cc1ccsc1)C(=O)c1c(O)n(C)c(=O)n(C)c1=O (centres unmarked) [compound 16]	214 ± 1.4 µM		
O=C(CCC1CCCC1)c1c(O)n(C2CCCCC2)c(=O)n(C2CCCCC2)c1=O [compound 10]	≥ 1000 µM		
Cn1c(O)c(C(=O)CCc2cccs2)c(=O)n(C)c1=O [compound 8]	27 ± 1.4 µM		
Cn1c(O)c(C(=O)CCC2CCCC2)c(=O)n(C)c1=O [compound 11]	67 ± 1.2 µM		
Cn1c(O)c(C(=O)NCC(=O)O)c(=O)n(C)c1=O [compound 6]	23 ± 1.2 µM		
CC(Cc1ccsc1)C(=O)c1c(O)n(C)c(=O)n(C)c1=O (centres unmarked) [compound 17]	22 ± 1.4 µM		
O=C(O)CC(O)C(=O)O (centres unmarked) [Malate]		5103 ± 2 µM	
COc1cccc(CCC(=O)c2c(O)n(C)c(=O)n(C)c2=O)c1 [compound 13]	135 ± 1.3 µM		
O=c1c(-n2ccnn2)c[nH]n1-c1cc(N2CCOCC2)ncn1 [Molidustat, reference compound]		74 ± 1.6 µM	
CC(=O)C(=O)O [Pyruvate]		2377 ± 1.7 µM	
O=C(O)CNC(=O)c1c(O)[nH]c(=O)[nH]c1=O [compound 5]	19 ± 1.3 µM		

SMILES	IC50 (JMJD6Δ363‐403; IC50, mean±SD)	IC50 (JMJD6Δ363‐403; mean±SD, read-out: IC50)	also measured
O=C(O)CC[C@H](O)C(=O)O [L‐2HG, 2‐hydroxyglutarate]		871 ± 1.5 µM	
O=C(O)CNC(=O)c1ncc(-c2cccc(Cl)c2)cc1O [Vadadustat]		7 ± 1.6 µM	Kd [1]: 14 µM; extent of 2OG displacement from JMJD6Δ363‐403.Zn(II).2OG complex (in words) [1]: most efficiently displaced 2OG
Cc1nc(C(=O)NCC(=O)O)c(O)c2ccc(Oc3ccccc3)cc12 [FG‐4592, reference compound]		23 ± 1.5 µM	
O=C(O)c1ccnc(C(=O)O)c1 [2,4 PDCA, pyridine‐2,4‐dicarboxylate, reference compound]		13 ± 1.3 µM	Kd [1]: 6 µM; extent of 2OG displacement from JMJD6Δ363‐403.Zn(II).2OG complex (in words) [1]: most efficiently displaced 2OG
Cn1c(O)c(C(=O)CCc2ccccc2)c(=O)n(C)c1=O [compound 7]	43 ± 1.1 µM		
O=C(O)CNC(=O)c1ncc(-c2cccc(F)c2)cc1O [AKB‐6899]		9 ± 1.5 µM	Kd [1]: 3 µM; extent of 2OG displacement from JMJD6Δ363‐403.Zn(II).2OG complex (in words) [1]: most efficiently displaced 2OG
O=C(O)CNC(=O)c1c(O)n(C2CCCCC2)c(=O)n(C2CCCCC2)c1=O [GSK1278863, reference compound]	10 ± 1.2 µM		
CCn1c(O)c(C(=O)CCC2CCCC2)c(=O)n(CC)c1=O [compound 9]	≥ 1000 µM		
O=C(O)CC(=O)C(=O)O [Oxaloacetate]		204 ± 2 µM	
O=C(O)/C=C/C(=O)O [Fumarate]		165 ± 1.4 µM	Kd [1]: 109 µM; extent of 2OG displacement from JMJD6Δ363‐403.Zn(II).2OG complex (in words) [1]: most efficiently displaced 2OG; potency of JMJD6 inhibition (in words) (JMJD6Δ363‐403): most potent of these compounds
CN(C)NC(=O)CCC(=O)O [Daminozide, reference compound]	94 ± 1.5 µM		
O=C(O)CCC(=O)O [Succinate]		261 ± 2.3 µM	Kd [1]: 159 µM; extent of 2OG displacement from JMJD6Δ363‐403.Zn(II).2OG complex (in words) [1]: most efficiently displaced 2OG
O=C(O)CCC(=O)NO [compound 3]		25 ± 2 µM	
O=C(O)CC(O)(CC(=O)O)C(=O)O [Citrate]		987 ± 1.3 µM	
O=C(O)CNC(=O)CNC(=O)C(=O)O [compound 1]		189 ± 1.5 µM	
COc1ccccc1CCC(=O)c1c(O)n(C)c(=O)n(C)c1=O [compound 12]	58 ± 1.4 µM		
O=C(O)c1ccnc(-c2cc(C(=O)O)ccn2)c1 [2,4 BPDCA, 2,2’‐bipyridine‐4,4’‐dicarboxylate, reference compound]		6 ± 1.6 µM	Kd [1]: 7 µM; extent of 2OG displacement from JMJD6Δ363‐403.Zn(II).2OG complex (in words) [1]: most efficiently displaced 2OG
